Results on three compounds are retold here after patent US10874669B2 (WAYNE STATE UNIVERSITY, priority 2018, dated 2020).

For series [1], the system named is PC12 cells. In words: DCFDA fluorescence assay of intracellular ROS induced by 6-OHDA. The class given is cell-based, rat. As to conditions: 20 μM, 24 h pretreatment, then 75 μM 6-OHDA 1 h. On the procedure: Experimental detection of reactive oxygen species (ROS) produced by 6-OHDA was carried out by DCFDA assay. 6-OHDA, a well known neurotoxin, produces oxidative stress similar to what is observed in PD and the mechanism of neurotoxicity of 6-OHDA takes place via its auto-oxidation and subsequent generation of hydrogen peroxide. DCFDA is a non-fluorogenic dye but in the presence of ROS, it is oxidized to produce DCF which produces florescence. We have previously shown that 6-OHDA causes cell death in a dose-dependent manner. We chose 75 μM 6-OHDA as we have shown that this dose induces 40-50% cell death. […] However, the test compounds could dose dependently decrease the production of ROS induced by 6-OHDA (75 μM) in PC12 cells. In this regard, highest dose of all the three compounds was the most efficacious in producing significant antioxidant effect.
PC12 cells (ATCC CRL1721.1, Manassas, Va., USA), a rat adrenal pheochromocytoma cell line, were cultured in T-75 flasks (Greiner Bio One, Frickenhausen, Germany) and maintained in RPMI 1640 medium supplemented with 10% heat inactivated horse serum, 5% fetal bovine sérum, 100 U/ml penicillin, and 100 μg/mL streptomycin at 37° C. in 95% air/5% CO2. […]
PC12 cells were plated at 30,000 cells/well density in 100 μL media in 96-well black plates and incubated at 37° C. under 5% CO2 atmosphere for 24 h. […] After incubation for 1 h, the fluorescence was measured using spectrophotometer fluorescence generated microplate reader (Biotek Epoch, Winooski, Vt., USA) at excitation 497 nm and emission at 527 nm. […] The specific fluorescence emission was calculated after subtraction of the DCFDA untreated control cells from the DCFDA treated cells for both the background and 1 h treatment conditions. This was followed by the division of the 1 h treatment data by the background activity which was determined from vials before treatment with 6-OHDA, to derive the final data point.

Series [2] has as its system PC12 cells. In words: MTT cell viability, compounds alone. Type of series: cell-based, rat. As to conditions: 0.01-30 μM, compared to untreated controls. On the procedure: (§1) To investigate the neuroprotection property of the selected target molecules (−)-91b, (−)-95a and (−)-95c against 6-OHDA-induced cytotoxicity, we used dopaminergic rat adrenal Pheochromocytoma PC12 cells. As reported above, treatment of PC12 cells with 6-OHDA at 75 μM for 24 h produced ˜50% loss in cells viability and this concentration was used in subsequent experiments. […] However, (−)-95a produced some incremental toxicity starting at 20 μM dose (FIG. 4B). The potential neuroprotective effects of (−)-91b, (−)-95a and (−)-95c against 6-OHDA-induced toxicity were evaluated next. […] At those concentration both drugs increased cell survival by ˜20% compared to 6-OHDA (75 μM) treated alone (FIGS. 4D and 4F), indicating neuroprotective effect of these drugs. […] This could be due to the fact that the compound by itself produced toxicity to the cells at doses ≥20 μM and the presence of 6-OHDA enhanced the toxicity (FIG. 4B).
PC12 cells (ATCC CRL1721.1, Manassas, Va., USA), a rat adrenal pheochromocytoma cell line, were cultured in T-75 flasks (Greiner Bio One, Frickenhausen, Germany) and maintained in RPMI 1640 medium supplemented with 10% heat inactivated horse serum, 5% fetal bovine serum, 100 U/ml penicillin, and 100 μg/mL streptomycin at 37° C. in 95% air/5% CO2. Stock solutions of (−)-91b, (−)-95a, (−)-95c, and 6-hydroxydopamine (6-OHDA) were prepared in dimethylsulfoxide (DMSO) and aliquots were stored at −20° C. and −80° C., respectively. […]
PC12 cells were plated at 17000 cells/well density in 100 μL of media in 96-well plates and incubated at 37° C. under 5% CO2 atmosphere for 24 h. […] The absorbance was measured on a microplate reader (Biotek Epoch, Winooski, Vt., USA) at 570 nm with background correction performed at 690 nm. Data from at least three experiments were analyzed using GraphPad software (version 6, San Diego, Calif., USA). Cell viability was defined as […] compared to untreated controls.

Another series has as its target cloned rat D2L receptors (Rattus norvegicus (Rat), UniProt P61169). In words: [3H]spiroperidol competition binding, rat D2L receptors in HEK-293 cells. As to conditions: rat D2 in HEK-293 cells; values of Table 3. From the text:
(§2) All these procedures were described by us previously.

In a further series the target is human DA D3 receptors (Homo sapiens (Human), UniProt P35462). In words: [35S]GTPγS binding stimulation, human D3 receptors in CHO cells. The class given is biochemical.
Sequence of human DA D3 receptors (P35462 whole entry): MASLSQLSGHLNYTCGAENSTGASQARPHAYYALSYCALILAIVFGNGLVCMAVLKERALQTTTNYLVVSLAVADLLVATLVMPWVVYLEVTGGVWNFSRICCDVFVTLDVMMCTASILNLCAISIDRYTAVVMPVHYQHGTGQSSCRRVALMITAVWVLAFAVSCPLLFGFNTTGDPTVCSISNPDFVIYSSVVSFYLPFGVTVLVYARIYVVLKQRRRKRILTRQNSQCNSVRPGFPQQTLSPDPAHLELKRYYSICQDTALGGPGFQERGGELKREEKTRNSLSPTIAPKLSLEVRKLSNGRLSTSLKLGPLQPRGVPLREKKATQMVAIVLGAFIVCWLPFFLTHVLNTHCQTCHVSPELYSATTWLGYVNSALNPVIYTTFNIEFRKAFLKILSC
For the next series, the target named is cloned rat D3 receptors (Rattus norvegicus (Rat), UniProt P19020). In words: [3H]spiroperidol competition binding, rat D3 receptors in HEK-293 cells. As to conditions: rat D3 in HEK-293 cells; values of Table 3. On the procedure:
A well established radioligand competition assay was carried out to evaluate binding affinity of the test compounds and were compared with that of the reference agent (S)-5-OH-DPAT (Table 3). Binding affinity to rat DA D2 and D3 receptors expressed in HEK-293 cells was determined as described by us previously. […] This indicated highest tolerance of the 4-substituted carbazole derivative for interaction with the D2 and D3 receptors.
as §2

In series [3] the test system is reserpine-induced hypolocomotion in rats. Description: Reversal of reserpine-induced hypolocomotion in rats. As to conditions: 10 μMol/kg, ip.
Method: In this model depletion of catecholamines by reserpine results in catalepsy in rats.
The following commercially available drug was used in the experiment: reserpine hydrochloride (Alfa Aesar). […] The compounds for this study were administered in a volume of 0.1-0.2 mL for subcutaneous administration and 0.5-0.7 ml for interaperitoneal administration into each rat.
In rodent studies, animals were male and female Sprague-Dawley rats from Harlan (Indianapolis, Ind.) weighing 220-225 g unless otherwise specified. Animals were maintained in sawdust-lined cages in a temperature and humidity controlled environment at 22±1° C. and 60±5% humidity, respectively. A 12 h light/dark cycle was maintained, with lights on from 6:00 a.m. to 6:00 p.m. They were group-housed with unrestricted access to food and water. All experiments were performed during the light component.
Reserpine (5.0 mg/kg, sc) was administered 18 h before the injection of drug or vehicle. The rats were placed individually in the chambers for 1 h for acclimatization before administration of the test drugs or vehicle. Immediately after administration of drug or vehicle, animals were individually placed in Opto-Varimex 4 animal activity monitor chamber (Columbus Instruments, Ohio, USA) to start measuring locomotor activity. Locomotion was monitored for 6 h. […] The data were presented as horizontal activity (HACTV). […] The data were analyzed by one-way analysis of variance (ANOVA) followed by Dunnett's post hoc test.
Another series has as its target human DA D2 receptors (Homo sapiens (Human), UniProt P14416). Description: [35S]GTPγS binding stimulation, human D2 receptors in CHO cells. Type of series: biochemical.
Series [4] concerns PC12 cells. Description: MTT neuroprotection against 6-OHDA-induced toxicity. The class given is cell-based, rat. On the procedure: as §1
PC12 cells (ATCC CRL1721.1, Manassas, Va., USA), a rat adrenal pheochromocytoma cell line, were cultured in T-75 flasks (Greiner Bio One, Frickenhausen, Germany) and maintained in RPMI 1640 medium supplemented with 10% heat inactivated horse serum, 5% fetal bovine serum, 100 U/ml penicillin, and 100 μg/mL streptomycin at 37° C. in 95% air/5% CO2. Stock solutions of (−)-91b, (−)-95a, (−)-95c, and 6-hydroxydopamine (6-OHDA) were prepared in dimethylsulfoxide (DMSO) and aliquots were stored at −20° C. and −80° C., respectively. For all experiments assessing neuroprotective effects of the test compounds, PC12 cells were pretreated with indicated concentrations of (−)-91b, (−)-95a and (−)-95c for 24 h and then treated with 75 μM 6-OHDA for another 24 h. The control cells were treated with above media containing 0.01% DMSO only.
PC12 cells were plated at 17000 cells/well density in 100 μL of media in 96-well plates and incubated at 37° C. under 5% CO2 atmosphere for 24 h. Cells were treated with varying concentrations of the test compounds to determine their direct effect on cell viability. Neuroprotection experiments were conducted by treating cells for 24 h with varying concentrations of (−)-91b, (−)-95a and (−)-95c. Then the drug containing media was replaced with fresh culture media followed by treatment with 75 μM of 6-OHDA alone for an additional 24 h under the same condition. After incubation for 24 h, 5 mg/mL MTT solution (prepared in Dulbecco's phosphate-buffered saline) was added to the cells (to a final concentration of 0.5 mg/mL) and the plates were further incubated at 37° C. in 95% air/5% CO2 atmosphere for 3-4 h to produce dark-blue formazan crystals. Afterward, the plates were centrifuged at 450 g for 10 min and the supernatants were carefully removed. Formazan crystals were dissolved by adding 100 μL of methanol:DMSO (1:1) mixture to each well and shaking gently at 400 rpm for 30 min at room temperature on a Thermomix R shaker (Eppendorf, Hamburg, Germany). The absorbance was measured on a microplate reader (Biotek Epoch, Winooski, Vt., USA) at 570 nm with background correction performed at 690 nm. Data from at least three experiments were analyzed using GraphPad software (version 6, San Diego, Calif., USA). Cell viability was defined as […] compared to untreated controls.

Series [5] has as its system PC12 cells. The note with it: previously shown; cited from earlier work.
A further series deals with α-syn (Homo sapiens (Human), UniProt P37840). The note with it: previously shown; cited from earlier work.
The mark [6] stands for this setting: compared with maximum stimulation by full agonist DA.

“Also recorded” adds a separate entry of the source.

Sequence of human DA D2 receptors (P14416 whole entry): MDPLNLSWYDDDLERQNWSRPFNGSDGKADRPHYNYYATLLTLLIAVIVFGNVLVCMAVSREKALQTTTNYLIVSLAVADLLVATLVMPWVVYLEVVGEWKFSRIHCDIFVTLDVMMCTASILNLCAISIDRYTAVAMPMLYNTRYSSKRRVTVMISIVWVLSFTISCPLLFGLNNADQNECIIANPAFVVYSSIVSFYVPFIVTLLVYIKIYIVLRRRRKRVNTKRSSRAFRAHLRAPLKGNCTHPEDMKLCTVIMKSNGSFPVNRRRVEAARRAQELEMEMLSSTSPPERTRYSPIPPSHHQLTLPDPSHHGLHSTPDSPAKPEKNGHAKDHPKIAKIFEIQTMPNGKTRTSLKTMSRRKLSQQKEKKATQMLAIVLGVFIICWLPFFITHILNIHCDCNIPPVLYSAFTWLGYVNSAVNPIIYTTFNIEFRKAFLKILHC
Sequence of cloned rat D3 receptors (P19020 whole entry): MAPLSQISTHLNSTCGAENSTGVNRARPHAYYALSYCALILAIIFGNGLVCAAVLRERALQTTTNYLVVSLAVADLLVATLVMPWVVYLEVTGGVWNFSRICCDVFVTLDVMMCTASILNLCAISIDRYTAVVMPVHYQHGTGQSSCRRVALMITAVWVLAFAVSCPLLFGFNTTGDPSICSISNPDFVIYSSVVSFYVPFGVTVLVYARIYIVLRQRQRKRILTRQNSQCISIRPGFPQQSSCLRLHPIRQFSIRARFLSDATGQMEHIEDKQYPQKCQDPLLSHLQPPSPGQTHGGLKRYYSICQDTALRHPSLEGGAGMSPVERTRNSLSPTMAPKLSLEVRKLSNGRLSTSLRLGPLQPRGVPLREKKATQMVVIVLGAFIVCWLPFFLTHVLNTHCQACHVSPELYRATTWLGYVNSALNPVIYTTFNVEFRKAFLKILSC
Sequence of cloned rat D2L receptors (P61169 whole entry): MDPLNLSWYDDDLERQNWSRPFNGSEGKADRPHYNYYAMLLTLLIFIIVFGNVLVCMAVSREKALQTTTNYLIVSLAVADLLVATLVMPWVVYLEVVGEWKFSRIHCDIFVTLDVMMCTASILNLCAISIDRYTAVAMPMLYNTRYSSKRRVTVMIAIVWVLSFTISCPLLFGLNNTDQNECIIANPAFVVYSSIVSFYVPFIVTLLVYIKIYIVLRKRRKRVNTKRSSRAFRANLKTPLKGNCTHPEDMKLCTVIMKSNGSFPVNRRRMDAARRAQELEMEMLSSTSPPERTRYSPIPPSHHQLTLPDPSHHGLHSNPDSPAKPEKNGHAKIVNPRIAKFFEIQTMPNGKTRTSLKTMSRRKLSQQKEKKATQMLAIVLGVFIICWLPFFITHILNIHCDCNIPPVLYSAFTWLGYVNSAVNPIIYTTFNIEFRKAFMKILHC

Consider `CCCN(CCN1CCN(c2cccc3[nH]c4ccccc4c23)CC1)[C@H]1CCc2c(O)cccc2C1` [Compound (−)-95c, (S)-6-((2-(4-(9H-carbazol-4-yl)piperazin-1-yl)ethyl)(propyl)amino)-5,6,7,8-tetra-hydronaphthalen-1-ol], for which, in the series on PC12 cells [1], the “reduction in ROS” value came out at 36%. Moreover, the “cell viability, compound alone” value in the series on PC12 cells [2] was “no cells loss”. Moreover, the inhibition constant (Ki) on cloned rat D2L receptors came out at 16.9 nM; on cloned rat D3 receptors, 0.36 nM. Also, the EC50 at human DA D3 receptors (CHO cells, read-out: EC50 (GTPγS), D3) amounted to 0.22 nM; at human DA D2 receptors (CHO cells, read-out: EC50 (GTPγS), D2), 2.29 nM. Besides, the maximal effect (Emax) at human DA D3 receptors (setting [6]) and at human DA D2 receptors (setting [6]) was 74 to 88% each time. Further, in series [3] (locomotion monitored for 6 h), the “duration of locomotor activation” value is reported as “significant enhancement of locomotion for the duration of the study of 6 h”. Moreover, in series [3] (reserpine 5 mg/kg sc, 18 h pretreatment, rats), the “reversal of reserpine-induced akinesia / hypolocomotion (horizontal activity)” value is “significantly reversed akinesia; also recorded: significantly different”. Besides, the “concentration of greatest protective effect” value in the series with PC12 cells [4] (24 h pretreatment, then 75 μM 6-OHDA 24 h) came to 20 µM. Besides, the “increase in cell survival compared to 6-OHDA treated alone” value in the series with PC12 cells [4] (at concentration of greatest protective effect, 75 μM 6-OHDA) is given as roughly 20%.

In the case of `CCCN[C@H]1CCc2nc(N)sc2C1` [Pramipexole], the “reducing toxicities of α-syn aggregates, compared to hybrid agonist” value with PC12 cells [5] is reported as “far less effective”. Also, the “decreasing ThT fluorescence, compared to hybrid agonist” value at α-syn is on record as “far less effective”.

In the case of `CCCN(CCC)C1CCc2c(O)cccc2C1` (stereo not shown) [Compound 5-OHDPAT, 5-hydroxy-2-(dipropylamino)tetralin], the “reducing toxicities of α-syn aggregates, compared to hybrid agonist” value in the series with PC12 cells [5] is listed as “far less effective”. The “decreasing ThT fluorescence, compared to hybrid agonist” value on α-syn is reported as “far less effective”.
